Assay results: PubChem BioAssay AID248 (DTP/NCI, 2004)
Toxic doses and inconclusive results are not listed.

Tested on: L1210 leukemia ip in BDF1 mice, survival T/C
Assay: NCI In Vivo Anticancer Drug Screen. Data for tumor model L1210 Leukemia (intraperitoneal) in B6D2F1 (BDF1) mice
Conditions: endpoint: mean survival time, higher = longer survival
Procedure, shortened: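 Tumor was transplanted into mice, which were then dosed with test compound or vehicle alone. Survival was recorded for each group, and the treated figure was expressed relative to the control figure.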

[1] = dose: 100.0 mg/kg/injection, schedule: Q01DX009 (ip), vehicle: Klucel (hydroxypropylcellulose) (HPC)
[2] = dose: 100.0 mg/kg/injection, schedule: Q04DX003 (ip), vehicle: Klucel (hydroxypropylcellulose) (HPC)
[3] = dose: 200.0 mg/kg/injection, schedule: Q01DX009 (ip), vehicle: Klucel (hydroxypropylcellulose) (HPC)
[4] = dose: 200.0 mg/kg/injection, schedule: Q04DX003 (ip), vehicle: Klucel (hydroxypropylcellulose) (HPC)
[5] = dose: 400.0 mg/kg/injection, schedule: Q01DX009 (ip), vehicle: Klucel (hydroxypropylcellulose) (HPC)
[6] = dose: 400.0 mg/kg/injection, schedule: Q04DX003 (ip), vehicle: Klucel (hydroxypropylcellulose) (HPC)
[7] = dose: 200.0 mg/kg/injection, schedule: Q01DX001 (ip), vehicle: carboxymethylcellulose (CMC)
[8] = dose: 100.0 mg/kg/injection, schedule: Q04DX003 (ip), vehicle: saline
[9] = dose: 200.0 mg/kg/injection, schedule: Q04DX003 (ip), vehicle: saline
[10] = dose: 400.0 mg/kg/injection, schedule: Q04DX003 (ip), vehicle: saline
[11] = dose: 100.0 mg/kg/injection, schedule: Q01DX001 (ip), vehicle: saline
[12] = dose: 200.0 mg/kg/injection, schedule: Q01DX001 (ip), vehicle: saline
[13] = dose: 400.0 mg/kg/injection, schedule: Q01DX001 (ip), vehicle: saline

In the case of `Nc1cc(C(=O)Nc2ccc(C3=NCCN3)cc2)cc(C(=O)Nc2ccc(C3=NCCN3)cc2)c1`, the T/C (dose: 4.0 mg/kg/injection, schedule: Q01DX Z (ip), vehicle: saline) is reported as 113 % of control, the T/C (dose: 8.0 mg/kg/injection, schedule: Q01DX004 (im), vehicle: olive oil, sesame oil, peanut oil) is reported as 95 % of control and the T/C (dose: 8.0 mg/kg/injection, schedule: Q01DX Z (ip), vehicle: saline) is reported as 107 % of control. For the same compound, the T/C (dose: 16.0 mg/kg/injection, schedule: Q01DX004 (im), vehicle: olive oil, sesame oil, peanut oil) was 95 % of control, the T/C (dose: 16.0 mg/kg/injection, schedule: Q01DX Z (ip), vehicle: saline) was 123 % of control and the T/C (dose: 31.0 mg/kg/injection, schedule: Q01DX Z (ip), vehicle: carboxymethylcellulose (CMC)) was 168 % of control. For the same compound, the T/C (dose: 32.0 mg/kg/injection, schedule: Q01DX004 (im), vehicle: olive oil, sesame oil, peanut oil) was 109 % of control, the T/C (dose: 32.0 mg/kg/injection, schedule: Q01DX010 (sc), vehicle: saline) was 159 % of control and the T/C (dose: 62.0 mg/kg/injection, schedule: Q01DX Z (ip), vehicle: carboxymethylcellulose (CMC)) was 197 % of control. For the same compound, the T/C (dose: 62.5 mg/kg/injection, schedule: Q01DX010 (oral), vehicle: saline) was 115 % of control, the T/C (dose: 64.0 mg/kg/injection, schedule: Q01DX004 (im), vehicle: olive oil, sesame oil, peanut oil) was 114 % of control and the T/C (dose: 64.0 mg/kg/injection, schedule: Q01DX010 (sc), vehicle: saline) was 179 % of control. For the same compound, the T/C (dose: 64.0 mg/kg/injection, schedule: Q01DX Z (ip), vehicle: saline) was 249 % of control, the T/C (dose: 125.0 mg/kg/injection, schedule: Q01DX010 (oral), vehicle: saline) was 87 % of control and the T/C (dose: 125.0 mg/kg/injection, schedule: Q01DX Z (ip), vehicle: carboxymethylcellulose (CMC)) was 155 % of control. The T/C (dose: 128.0 mg/kg/injection, schedule: Q01DX010 (sc), vehicle: saline) was 186 % of control, the T/C (dose: 128.0 mg/kg/injection, schedule: Q01DX Z (ip), vehicle: saline) was 212 % of control and the T/C (dose: 250.0 mg/kg/injection, schedule: Q01DX010 (oral), vehicle: saline) was 88 % of control. For the same compound, the T/C (dose: 250.0 mg/kg/injection, schedule: Q01DX Z (ip), vehicle: carboxymethylcellulose (CMC)) was 117 % of control, the T/C (dose: 500.0 mg/kg/injection, schedule: Q01DX010 (oral), vehicle: saline) was 117 % of control and the T/C (dose: 1000.0 mg/kg/injection, schedule: Q01DX010 (oral), vehicle: saline) was 115 % of control.

`COc1cc(C(=O)O)ccc1[N+](=O)[O-]` was tested, and the T/C (dose: 100.0 mg/kg/injection, schedule: Q04DX003 (ip), vehicle: saline with Tween-80) was 102 % of control, the T/C (dose: 200.0 mg/kg/injection, schedule: Q04DX003 (ip), vehicle: saline with Tween-80) was 102 % of control and the T/C (dose: 400.0 mg/kg/injection, schedule: Q04DX003 (ip), vehicle: saline with Tween-80) was 96 % of control.

With `O=[N+]([O-])c1[nH]c(Br)c(Br)c1Br` the T/C (dose: 0.75 mg/kg/injection, schedule: Q01DX009 (ip), vehicle: Klucel (hydroxypropylcellulose) (HPC)) was 92 % of control, the T/C (dose: 1.5 mg/kg/injection, schedule: Q01DX009 (ip), vehicle: Klucel (hydroxypropylcellulose) (HPC)) was 89 % of control and the T/C (dose: 3.0 mg/kg/injection, schedule: Q01DX009 (ip), vehicle: Klucel (hydroxypropylcellulose) (HPC)) was 89 % of control.

In the case of `O=c1ccccn1CC1(c2ccccc2)OCCO1`, the T/C [1] is reported as 98 % of control, the T/C [2] is reported as 102 % of control and the T/C [3] is reported as 104 % of control. For the same compound, the T/C [4] was 96 % of control, the T/C [5] was 100 % of control and the T/C [6] was 94 % of control.

For `C1=Cc2ccccc2Sc2ccccc21`, the T/C (dose: 50.0 mg/kg/injection, schedule: Q01DX001 (ip), vehicle: carboxymethylcellulose (CMC)) was 98 % of control and the T/C [7] was 98 % of control.

`CCOC(=O)CCN(CC)CC` was tested, and the T/C [8] was 97 % of control, the T/C [9] was 94 % of control and the T/C [10] was 108 % of control.

`O=C1c2ccccc2C(=O)c2c1ccc1c2[nH]c2ccccc21` was tested, and the T/C (dose: 100.0 mg/kg/injection, schedule: Q01DX001 (ip), vehicle: carboxymethylcellulose (CMC)) was 86 % of control, the T/C [7] was 91 % of control and the T/C (dose: 400.0 mg/kg/injection, schedule: Q01DX001 (ip), vehicle: carboxymethylcellulose (CMC)) was 89 % of control.

With `O=C1C2C(C(=O)N1c1ccc(Br)cc1)C1(Cl)C(Cl)=C(Cl)C2(Cl)C1(Cl)Cl` (configuration not stated) the T/C [1] was 104 % of control, the T/C [2] was 101 % of control and the T/C [3] was 102 % of control. The T/C [4] was 111 % of control, the T/C [5] was 96 % of control and the T/C [6] was 104 % of control.

For `CC(=O)Oc1ccc(CCNC(c2ccccc2)c2ccccc2)cc1OC(C)=O`, the T/C [11] was 100 % of control, the T/C [12] was 107 % of control and the T/C [13] was 86 % of control.

For `CCCSCSCCC`, the T/C [11] was 105 % of control, the T/C (dose: 100.0 mg/kg/injection, schedule: Q01DX009 (ip), vehicle: saline) was 105 % of control and the T/C [8] was 98 % of control. For the same compound, the T/C [12] was 98 % of control, the T/C (dose: 200.0 mg/kg/injection, schedule: Q01DX009 (ip), vehicle: saline) was 97 % of control and the T/C [9] was 104 % of control. For the same compound, the T/C [13] was 98 % of control, the T/C (dose: 400.0 mg/kg/injection, schedule: Q01DX009 (ip), vehicle: saline) was 100 % of control and the T/C [10] was 97 % of control.

In the case of `COC1=Nc2ccccc2/C=C\c2ccccc21`, the T/C (dose: 100.0 mg/kg/injection, schedule: Q04DX002 (ip), vehicle: carboxymethylcellulose (CMC)) is reported as 96 % of control, the T/C (dose: 200.0 mg/kg/injection, schedule: Q04DX002 (ip), vehicle: carboxymethylcellulose (CMC)) is reported as 89 % of control and the T/C (dose: 400.0 mg/kg/injection, schedule: Q04DX002 (ip), vehicle: carboxymethylcellulose (CMC)) is reported as 89 % of control.

With `Cc1nc2sc3c(c2c(=S)[nH]1)CCCC3` the T/C (dose: 100.0 mg/kg/injection, schedule: Q01DX001 (ip), vehicle: saline sonified) was 86 % of control, the T/C (dose: 200.0 mg/kg/injection, schedule: Q01DX001 (ip), vehicle: saline sonified) was 89 % of control and the T/C (dose: 400.0 mg/kg/injection, schedule: Q01DX001 (ip), vehicle: saline sonified) was 91 % of control.

For `O=[N+]([O-])c1cc(-c2ccccc2)cc([N+](=O)[O-])c1Cl`, the T/C (dose: 50.0 mg/kg/injection, schedule: Q01DX009 (ip), vehicle: acetone) was 97 % of control, the T/C (dose: 100.0 mg/kg/injection, schedule: Q01DX009 (ip), vehicle: acetone) was 100 % of control and the T/C [8] was 96 % of control. The T/C (dose: 200.0 mg/kg/injection, schedule: Q01DX009 (ip), vehicle: acetone) was 95 % of control, the T/C [9] was 102 % of control and the T/C [10] was 102 % of control.

With `CCCCC(=O)c1cc(OC)cc(OC)c1` the T/C (dose: 50.0 mg/kg/injection, schedule: Q01DX001 (ip), vehicle: other) was 109 % of control, the T/C (dose: 100.0 mg/kg/injection, schedule: Q01DX001 (ip), vehicle: Klucel (hydroxypropylcellulose) (HPC)) was 95 % of control and the T/C (dose: 100.0 mg/kg/injection, schedule: Q01DX001 (ip), vehicle: other) was 102 % of control. The T/C [1] was 97 % of control, the T/C (dose: 200.0 mg/kg/injection, schedule: Q01DX001 (ip), vehicle: Klucel (hydroxypropylcellulose) (HPC)) was 95 % of control and the T/C (dose: 200.0 mg/kg/injection, schedule: Q01DX001 (ip), vehicle: other) was 104 % of control. The T/C [3] was 96 % of control, the T/C (dose: 400.0 mg/kg/injection, schedule: Q01DX001 (ip), vehicle: Klucel (hydroxypropylcellulose) (HPC)) was 98 % of control and the T/C (dose: 400.0 mg/kg/injection, schedule: Q01DX001 (ip), vehicle: other) was 91 % of control. The T/C [5] was 100 % of control.

With `Cn1cnc2c3cccnc3ccc21` the T/C (dose: 75.0 mg/kg/injection, schedule: Q01DX001 (ip), vehicle: saline) was 95 % of control and the T/C (dose: 150.0 mg/kg/injection, schedule: Q01DX001 (ip), vehicle: saline) was 103 % of control.

For `CCOC(=O)N1C(=O)NC(=O)C1c1ccc(OC)cc1` (configuration not stated), the T/C (dose: 50.0 mg/kg/injection, schedule: Q01DX001 (ip), vehicle: saline) was 91 % of control, the T/C [11] was 97 % of control and the T/C [12] was 100 % of control. The T/C [13] was 102 % of control.

For `CCCCn1cnc2ccc3[nH]c(C)nc3c2c1=O`, the T/C (dose: 12.5 mg/kg/injection, schedule: Q01DX001 (ip), vehicle: carboxymethylcellulose (CMC)) was 104 % of control and the T/C (dose: 25.0 mg/kg/injection, schedule: Q01DX001 (ip), vehicle: carboxymethylcellulose (CMC)) was 96 % of control.

With `CN1CCCN(C)C1c1ccccc1O` the T/C (dose: 12.5 mg/kg/injection, schedule: Q04DX003 (ip), vehicle: saline) was 96 % of control, the T/C (dose: 25.0 mg/kg/injection, schedule: Q04DX003 (ip), vehicle: saline) was 106 % of control and the T/C (dose: 50.0 mg/kg/injection, schedule: Q04DX003 (ip), vehicle: saline) was 101 % of control.
